This note sets out measurements from patent publication US12281149B2, “Modulators of G-protein coupled receptors” (priority 2021, dated 2025).

pEC50: −log10 of the molar value. *1 amine or outer side, *2 acyl side, *3 side chain or, on linkers, in order; H or OH if unused. Where a SMILES comes first, the peptide text is derived from it. Side-chain parts run from the residue outwards. [ ]: non-standard residue; d: D form. The star is where a group is joined. C20 diacid = O=C(O)CCCCCCCCCCCCCCCCCCC(=O)*; αMePhe(2-F) = C[C@](N)(Cc1ccccc1F)C(=O)O; γGlu = O=C(O)[C@H](CCC(=O)[*:2])N[*:1]; X39 = CCC(CC)(C(=O)*)c1ccc(Cl)cc1; X3 = CC(C)(C(=O)*)c1ccc(Cl)cc1; X23 = CC(C)(C(=O)*)c1ccncc1; AEEA = NCCOCCOCC(=O)O; Aib = CC(C)(N)C(=O)O; CO = O=C([*:1])[*:2]; Piv = CC(C)(C)C(=O)*; X12 = Fc1cccc(N*)c1; GABA = NCCCC(=O)O; βAla = NCCC(=O)O

Holding throughout (format): cell-based
For assay [1], the target named is T1, GLP-1 receptor (Homo sapiens, UniProt P43220). Description: PathHunter β-arrestin assay, GLP-1 receptor. Set-up: host or cells: PathHunter CHO-K1 GLP1R β-Arrestin Cell Line. Particulars: β-arrestin-2 recruitment, PathHunter CHO-K1 GLP1R β-Arrestin Cell Line, 90 min at 37° C.; normalized to GLP-1; read-out: GLP-1R β Arrestin EC50. A general note: Activated receptors often draw arrestin, which recruitment assays turn into a signal.

Assay [2] deals with T1, GLP-1 receptor. Description: HitHunter cAMP assay, GLP-1 receptor. Particulars: for pEC50: CHO cells stably expressing human GLP-1 receptor, cAMP accumulation, 30 min, read-out: EC50 GLP-1R; for Emax: CHO cells, cAMP, normalized to maximum signal from GLP-1 (high) and DMSO (low), read-out: Emax GLP-1R. A general note: Cyclic AMP is a second messenger, typically raised through Gs and lowered through Gi signalling.

Assay [3] deals with T2, GIP receptor (Homo sapiens, UniProt P48546).
T2 sequence (P48546 22-466): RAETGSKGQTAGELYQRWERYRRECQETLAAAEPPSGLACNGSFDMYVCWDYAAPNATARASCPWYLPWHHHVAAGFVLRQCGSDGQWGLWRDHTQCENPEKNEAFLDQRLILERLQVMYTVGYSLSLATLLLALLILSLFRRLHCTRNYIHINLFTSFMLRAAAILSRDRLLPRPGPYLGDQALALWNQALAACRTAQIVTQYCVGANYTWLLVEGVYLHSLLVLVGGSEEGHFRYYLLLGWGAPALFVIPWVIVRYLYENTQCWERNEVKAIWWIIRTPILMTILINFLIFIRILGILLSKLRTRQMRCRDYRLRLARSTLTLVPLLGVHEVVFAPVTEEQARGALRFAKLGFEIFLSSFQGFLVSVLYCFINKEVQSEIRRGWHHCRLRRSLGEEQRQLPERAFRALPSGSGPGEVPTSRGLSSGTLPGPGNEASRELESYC
As to the kind of experiment: HitHunter cAMP assay, GIP receptor. The settings on record: for pEC50: CHO cells stably expressing GIP receptor, cAMP accumulation, 30 min, read-out: EC50 GIP-1R; for Emax: CHO cells, cAMP, normalized to maximum signal from GIP (high) and DMSO (low), read-out: Emax GIP-1R.

The target of assay [4] is T2, GIP receptor. As to the kind of experiment: PathHunter β-arrestin assay, GIP receptor. Details: host or cells: PathHunter CHO-K1 GIPR β-Arrestin Cell Line. The settings on record: β-arrestin-2 recruitment, PathHunter CHO-K1 GIPR β-Arrestin Cell Line, 90 min at 37° C.; normalized to GIP; read-out: GIPR β Arrestin EC50.

T1 sequence (P43220 24-463): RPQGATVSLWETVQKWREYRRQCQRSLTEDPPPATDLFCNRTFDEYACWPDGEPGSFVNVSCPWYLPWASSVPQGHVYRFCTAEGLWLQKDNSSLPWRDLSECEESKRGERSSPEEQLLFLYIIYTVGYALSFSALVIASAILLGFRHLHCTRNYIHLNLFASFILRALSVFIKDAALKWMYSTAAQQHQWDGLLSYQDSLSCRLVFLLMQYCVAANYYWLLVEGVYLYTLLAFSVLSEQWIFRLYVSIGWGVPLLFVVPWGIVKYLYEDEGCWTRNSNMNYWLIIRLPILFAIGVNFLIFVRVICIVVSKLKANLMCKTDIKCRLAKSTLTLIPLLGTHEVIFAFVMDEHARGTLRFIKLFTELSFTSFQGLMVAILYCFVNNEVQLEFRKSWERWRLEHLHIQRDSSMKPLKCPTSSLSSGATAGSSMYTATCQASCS

Broadly, the pEC50 is −log10 of the EC50, conventionally taken in molar units. In general, Emax refers to the greatest response seen or fitted, relative to the assay's reference. Consider `CC[C@H](C)[C@H](NC(=O)[C@H](CC(C)C)NC(=O)[C@H](Cc1c[nH]c2ccccc12)NC(=O)[C@H](CCC(N)=O)NC(=O)[C@@H](NC(=O)[C@H](Cc1ccccc1)NC(=O)[C@H](C)NC(=O)[C@H](CCCCNC(=O)COCCOCCNC(=O)COCCOCCNC(=O)CC[C@H](NC(=O)CCCCCCCCCCCCCCCCCCC(=O)O)C(=O)O)NC(=O)[C@H](CCC(N)=O)NC(=O)[C@H](C)NC(=O)[C@@H](NC(=O)[C@H](CCCCN)NC(=O)[C@H](CC(=O)O)NC(=O)[C@H](CC(C)C)NC(=O)C(C)(C)NC(=O)[C@@H](NC(=O)[C@H](CO)NC(=O)[C@H](Cc1ccc(O)cc1)NC(=O)[C@H](CC(=O)O)NC(=O)[C@H](CO)NC(=O)[C@@H](NC(=O)[C@H](Cc1ccccc1)NC(=O)[C@@H](NC(=O)CNC(=O)[C@H](CCC(=O)O)NC(=O)CCNC(=O)C(C)(C)C)[C@@H](C)O)[C@@H](C)O)[C@@H](C)CC)[C@@H](C)CC)C(C)C)C(=O)N[C@@H](C)C(=O)NCC(=O)NCC(=O)N1CCC[C@H]1C(=O)N[C@@H](CO)C(=O)N[C@@H](CO)C(=O)NCC(=O)N[C@@H](C)C(=O)N1CCC[C@H]1C(=O)N1CCC[C@H]1C(=O)N1CCC[C@H]1C(=O)N[C@@H](CO)C(N)=O` [Compound 197] ({Piv-βAla}-EGTFTSDYSI[Aib]LDKIAQK([AEEA-AEEA-γGlu-C20 diacid])AFVQWLIAGGPSSGAPPPS-NH2), for which the pEC50 at GLP-1 receptor [1] was less than 6.00; on GLP-1 receptor [2], 9.00 to 10.00; at GIP receptor [3], 7.00 to 8.00; at GIP receptor [4] it was less than 6.00. Moreover, the Emax at GLP-1 receptor [2] came out at 96%; on GIP receptor [3] it was 97%.

Consider `CC[C@H](C)[C@H](NC(=O)[C@H](CC(C)C)NC(=O)[C@H](Cc1c[nH]c2ccccc12)NC(=O)[C@H](CCC(N)=O)NC(=O)[C@@H](NC(=O)[C@H](Cc1ccccc1)NC(=O)[C@H](C)NC(=O)[C@H](CCCCNC(=O)COCCOCCNC(=O)COCCOCCNC(=O)CC[C@H](NC(=O)CCCCCCCCCCCCCCCCCCC(=O)O)C(=O)O)NC(=O)[C@H](CCC(N)=O)NC(=O)[C@H](C)NC(=O)[C@@H](NC(=O)[C@H](CCCCN)NC(=O)[C@H](CC(=O)O)NC(=O)[C@H](CC(C)C)NC(=O)C(C)(C)NC(=O)[C@@H](NC(=O)[C@H](CO)NC(=O)[C@H](Cc1ccc(O)cc1)NC(=O)[C@H](CC(=O)O)NC(=O)[C@H](CO)NC(=O)[C@@H](NC(=O)[C@H](Cc1ccccc1)NC(=O)[C@@H](NC(=O)CNC(=O)[C@H](CCC(=O)O)NC(=O)CCNC(=O)C(C)(C)c1ccncc1)[C@@H](C)O)[C@@H](C)O)[C@@H](C)CC)[C@@H](C)CC)C(C)C)C(=O)N[C@@H](C)C(=O)NCC(=O)NCC(=O)N1CCC[C@H]1C(=O)N[C@@H](CO)C(=O)N[C@@H](CO)C(=O)NCC(=O)N[C@@H](C)C(=O)N1CCC[C@H]1C(=O)N1CCC[C@H]1C(=O)N1CCC[C@H]1C(=O)N[C@@H](CO)C(N)=O` [Compound 238] ({X23-βAla}-EGTFTSDYSI[Aib]LDKIAQK([AEEA-AEEA-γGlu-C20 diacid])AFVQWLIAGGPSSGAPPPS-NH2), for which the pEC50 was less than 6.00 at GLP-1 receptor [1], 9.00 to 10.00 on GLP-1 receptor [2], 7.00 to 8.00 at GIP receptor [3] and less than 6.00 at GIP receptor [4]. In addition, the figures for the Emax on GLP-1 receptor [2] and at GIP receptor [3] were 91% and 100%, respectively.

In the case of `CC[C@H](C)[C@H](NC(=O)[C@H](CC(C)C)NC(=O)[C@H](Cc1c[nH]c2ccccc12)NC(=O)[C@H](CCC(N)=O)NC(=O)[C@@H](NC(=O)[C@H](Cc1ccccc1)NC(=O)[C@H](C)NC(=O)[C@H](CCCCNC(=O)COCCOCCNC(=O)COCCOCCNC(=O)CC[C@H](NC(=O)CCCCCCCCCCCCCCCCCCC(=O)O)C(=O)O)NC(=O)[C@H](CCC(N)=O)NC(=O)[C@H](C)NC(=O)[C@@H](NC(=O)[C@H](CCCCN)NC(=O)[C@H](CC(=O)O)NC(=O)[C@H](CC(C)C)NC(=O)C(C)(C)NC(=O)[C@@H](NC(=O)[C@H](CO)NC(=O)[C@H](Cc1ccc(O)cc1)NC(=O)[C@H](CC(=O)O)NC(=O)[C@H](CO)NC(=O)[C@@H](NC(=O)[C@H](Cc1ccccc1)NC(=O)[C@@H](NC(=O)CNC(=O)[C@H](CCC(=O)O)NC(=O)CCNC(=O)C(C)(C)c1ccc(Cl)cc1)[C@@H](C)O)[C@@H](C)O)[C@@H](C)CC)[C@@H](C)CC)C(C)C)C(=O)N[C@@H](C)C(=O)NCC(=O)NCC(=O)N1CCC[C@H]1C(=O)N[C@@H](CO)C(=O)N[C@@H](CO)C(=O)NCC(=O)N[C@@H](C)C(=O)N1CCC[C@H]1C(=O)N1CCC[C@H]1C(=O)N1CCC[C@H]1C(=O)N[C@@H](CO)C(N)=O` [Compound 185] ({X3-βAla}-EGTFTSDYSI[Aib]LDKIAQK([AEEA-AEEA-γGlu-C20 diacid])AFVQWLIAGGPSSGAPPPS-NH2), the pEC50 at GLP-1 receptor [1] was more than 6.00; on GLP-1 receptor [2], 9.00 to 10.00; on GIP receptor [3], 7.00 to 8.00; on GIP receptor [4], less than 6.00. The Emax worked out at 101% at GLP-1 receptor [2] and 95% on GIP receptor [3].

As for `CC[C@H](C)[C@H](NC(=O)[C@H](CC(C)C)NC(=O)[C@H](Cc1c[nH]c2ccccc12)NC(=O)[C@H](CCC(N)=O)NC(=O)[C@@H](NC(=O)[C@H](Cc1ccccc1)NC(=O)[C@H](C)NC(=O)[C@H](CCCCNC(=O)COCCOCCNC(=O)COCCOCCNC(=O)CC[C@H](NC(=O)CCCCCCCCCCCCCCCCCCC(=O)O)C(=O)O)NC(=O)[C@H](CCC(N)=O)NC(=O)[C@H](C)NC(=O)[C@@H](NC(=O)[C@H](CCCCN)NC(=O)[C@H](CC(=O)O)NC(=O)[C@H](CC(C)C)NC(=O)C(C)(C)NC(=O)[C@@H](NC(=O)[C@H](CO)NC(=O)[C@H](Cc1ccc(O)cc1)NC(=O)[C@H](CC(=O)O)NC(=O)[C@H](CO)NC(=O)[C@@H](NC(=O)[C@](C)(Cc1ccccc1F)NC(=O)[C@@H](NC(=O)CNC(=O)[C@H](CCC(=O)O)NC(=O)CCCNC(=O)Nc1cccc(F)c1)[C@@H](C)O)[C@@H](C)O)[C@@H](C)CC)[C@@H](C)CC)C(C)C)C(=O)N[C@@H](C)C(=O)NCC(=O)NCC(=O)N1CCC[C@H]1C(=O)N[C@@H](CO)C(=O)N[C@@H](CO)C(=O)NCC(=O)N[C@@H](C)C(=O)N1CCC[C@H]1C(=O)N1CCC[C@H]1C(=O)N1CCC[C@H]1C(=O)N[C@@H](CO)C(N)=O` [Compound 282] ({X12-CO-GABA}-EGT[αMePhe(2-F)]TSDYSI[Aib]LDKIAQK([AEEA-AEEA-γGlu-C20 diacid])AFVQWLIAGGPSSGAPPPS-NH2), the pEC50 is less than 6.00 on GLP-1 receptor [1], 9.00 to 10.00 on GLP-1 receptor [2], 7.00 to 8.00 at GIP receptor [3] and less than 6.00 on GIP receptor [4]. Moreover, the Emax on GLP-1 receptor [2] came out at 92%; at GIP receptor [3], 90%.

For the molecule `CC[C@H](C)[C@H](NC(=O)[C@H](CC(C)C)NC(=O)[C@H](Cc1c[nH]c2ccccc12)NC(=O)[C@H](CCC(N)=O)NC(=O)[C@@H](NC(=O)[C@H](Cc1ccccc1)NC(=O)[C@H](C)NC(=O)[C@H](CCCCNC(=O)COCCOCCNC(=O)COCCOCCNC(=O)CC[C@H](NC(=O)CCCCCCCCCCCCCCCCCCC(=O)O)C(=O)O)NC(=O)[C@H](CCC(N)=O)NC(=O)[C@H](C)NC(=O)[C@@H](NC(=O)[C@H](CCCCN)NC(=O)[C@H](CC(=O)O)NC(=O)[C@H](CC(C)C)NC(=O)C(C)(C)NC(=O)[C@@H](NC(=O)[C@H](CO)NC(=O)[C@H](Cc1ccc(O)cc1)NC(=O)[C@H](CC(=O)O)NC(=O)[C@H](CO)NC(=O)[C@@H](NC(=O)[C@H](Cc1ccccc1)NC(=O)[C@@H](NC(=O)CNC(=O)[C@H](CCC(=O)O)NC(=O)CCNC(=O)C(CC)(CC)c1ccc(Cl)cc1)[C@@H](C)O)[C@@H](C)O)[C@@H](C)CC)[C@@H](C)CC)C(C)C)C(=O)N[C@@H](C)C(=O)NCC(=O)NCC(=O)N1CCC[C@H]1C(=O)N[C@@H](CO)C(=O)N[C@@H](CO)C(=O)NCC(=O)N[C@@H](C)C(=O)N1CCC[C@H]1C(=O)N1CCC[C@H]1C(=O)N1CCC[C@H]1C(=O)N[C@@H](CO)C(N)=O` [Compound 176] ({X39-βAla}-EGTFTSDYSI[Aib]LDKIAQK([AEEA-AEEA-γGlu-C20 diacid])AFVQWLIAGGPSSGAPPPS-NH2), the pEC50 was less than 6.00 on GLP-1 receptor [1], 8.00 to 9.00 at GLP-1 receptor [2], 8.00 to 9.00 at GIP receptor [3] and more than 6.00 on GIP receptor [4]. In addition, the maximal response (Emax) on GLP-1 receptor [2] and on GIP receptor [3] was 110% in each case.
